Reference: PubChem BioAssay (NCI)
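Following 48 hours of exposure in 96-well plates, responses at five concentrations were used to interpolate endpoints linearly. GI50 marks 50% less growth. TGI is the concentration that stops growth completely.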

Experiments:
Test in all cases: NCI-60 cell line screen, 48 h
IGROV1 ovarian = test system: IGROV1 ovarian
KM20L2 colon = test system: KM20L2 colon
MOLT-4 leukemia = test system: MOLT-4 leukemia
OVCAR-4 ovarian = test system: OVCAR-4 ovarian
RXF 393 renal = test system: RXF 393 renal
SK-OV-3 ovarian = test system: SK-OV-3 ovarian
UACC-62 melanoma = test system: UACC-62 melanoma
MDA-MB-231 breast = test system: MDA-MB-231 breast
MDA-N = test system: MDA-N
NCI/ADR-RES ovarian = test system: NCI/ADR-RES ovarian
PC-3 prostate = test system: PC-3 prostate

With `O=C1C(Cl)N(c2ccccc2Cl)C1c1c[nH]c2ccccc12` (stereo unspecified) the TGI (IGROV1 ovarian) was > 100 µM, the TGI (KM20L2 colon) was > 100 µM and the TGI (MOLT-4 leukemia) was > 100 µM. The TGI (OVCAR-4 ovarian) was > 100 µM, the TGI (RXF 393 renal) was > 100 µM and the TGI (SK-OV-3 ovarian) was > 100 µM. For the same compound, the TGI (UACC-62 melanoma) was > 100 µM.
`Oc1ccc(C(=C(Br)c2ccccc2)c2ccc(O)cc2)cc1` was tested, and the TGI (IGROV1 ovarian) was 19.9 µM, the TGI (MDA-MB-231 breast) was 24 µM and the TGI (MDA-N) was 4.1 µM. The TGI (MOLT-4 leukemia) was 40.5 µM, the TGI (NCI/ADR-RES ovarian) was 12.6 µM and the TGI (PC-3 prostate) was 19.9 µM. The TGI (RXF 393 renal) was 27.2 µM, the TGI (SK-OV-3 ovarian) was 16.9 µM and the TGI (UACC-62 melanoma) was 23.1 µM.
`CN1C(=O)CC(=O)N1/C(=C/c1ccccc1)c1ccccc1` was tested, and the TGI (IGROV1 ovarian) was 42.2 µM, the TGI (MDA-MB-231 breast) was 79.4 µM and the TGI (MDA-N) was > 100 µM. For the same compound, the TGI (MOLT-4 leukemia) was 55.5 µM, the TGI (NCI/ADR-RES ovarian) was > 100 µM and the TGI (OVCAR-4 ovarian) was > 100 µM. The TGI (PC-3 prostate) was > 100 µM, the TGI (RXF 393 renal) was 54.1 µM and the TGI (SK-OV-3 ovarian) was > 100 µM. For the same compound, the TGI (UACC-62 melanoma) was > 100 µM.
For `O=C1c2cc3c(cc2-c2c1c1ccc(Cl)cc1c(=O)n2C[C@H](O)CO)OCO3`, the GI50 (IGROV1 ovarian) was 0.135 µM, the TGI (IGROV1 ovarian) was > 100 µM and the GI50 (MDA-MB-231 breast) was 0.32 µM. For the same compound, the TGI (MDA-MB-231 breast) was 1.97 µM, the GI50 (MOLT-4 leukemia) was < 0.01 µM and the TGI (MOLT-4 leukemia) was 12.4 µM. For the same compound, the GI50 (NCI/ADR-RES ovarian) was 0.0322 µM, the TGI (NCI/ADR-RES ovarian) was 1.12 µM and the GI50 (RXF 393 renal) was 0.0275 µM. For the same compound, the TGI (RXF 393 renal) was 0.126 µM, the GI50 (SK-OV-3 ovarian) was 0.0444 µM and the TGI (SK-OV-3 ovarian) was 1.66 µM. The GI50 (UACC-62 melanoma) was 0.0122 µM and the TGI (UACC-62 melanoma) was 0.122 µM.
In the case of `CSCCC(C(=O)O)N(C)C` (stereo unspecified), the TGI (IGROV1 ovarian) was > 100 µM, the TGI (MDA-MB-231 breast) was > 100 µM and the TGI (MDA-N) was > 100 µM. The TGI (NCI/ADR-RES ovarian) was > 100 µM, the TGI (OVCAR-4 ovarian) was > 100 µM and the TGI (PC-3 prostate) was > 100 µM. For the same compound, the TGI (RXF 393 renal) was > 100 µM, the TGI (SK-OV-3 ovarian) was > 100 µM and the TGI (UACC-62 melanoma) was > 100 µM.
With `O=C1c2cc(O)c(O)cc2O[C@H](c2ccc(O)c(O)c2)[C@H]1O` the TGI (IGROV1 ovarian) was > 100 µM, the TGI (MDA-MB-231 breast) was > 100 µM and the TGI (MDA-N) was > 100 µM. The TGI (MOLT-4 leukemia) was > 100 µM, the TGI (NCI/ADR-RES ovarian) was > 100 µM and the TGI (PC-3 prostate) was > 100 µM. The TGI (SK-OV-3 ovarian) was > 100 µM and the TGI (UACC-62 melanoma) was > 100 µM.
`C=C(C#N)C(=O)OCC(CC)CC.C=C(C#N)C(=O)OCC(CC)CC.CS(C)=O.CS(C)=O.Nc1c(N=Nc2ccc(-c3ccc(N=Nc4cc(S(=O)(=O)[O-])c5ccccc5c4N)cc3)cc2)cc(S(=O)(=O)[O-])c2ccccc12.[Pt+2]` was tested, and the GI50 (IGROV1 ovarian) was 29.4 µM, the TGI (IGROV1 ovarian) was > 100 µM and the GI50 (KM20L2 colon) was > 100 µM. For the same compound, the TGI (KM20L2 colon) was > 100 µM, the GI50 (MOLT-4 leukemia) was 27.1 µM and the TGI (MOLT-4 leukemia) was > 91.3 µM. It also gave a GI50 (NCI/ADR-RES ovarian) of 34 µM, a TGI (NCI/ADR-RES ovarian) of 91.7 µM and a GI50 (OVCAR-4 ovarian) of 33.7 µM. The TGI (OVCAR-4 ovarian) was 99.2 µM, the GI50 (RXF 393 renal) was 19.5 µM and the TGI (RXF 393 renal) was 51.1 µM. The GI50 (SK-OV-3 ovarian) was 97.9 µM, the TGI (SK-OV-3 ovarian) was > 100 µM and the GI50 (UACC-62 melanoma) was 36.8 µM. It also gave a TGI (UACC-62 melanoma) of 97.4 µM.
`C=CCNC(=O)C(C)C1CCC2(C)C=CC(=O)C(C)=C2C1O` (stereo unspecified) was tested, and the TGI (IGROV1 ovarian) was > 100 µM, the TGI (KM20L2 colon) was > 100 µM and the TGI (MOLT-4 leukemia) was > 100 µM. The TGI (NCI/ADR-RES ovarian) was > 100 µM, the TGI (OVCAR-4 ovarian) was > 100 µM and the TGI (RXF 393 renal) was > 100 µM. The TGI (SK-OV-3 ovarian) was > 100 µM and the TGI (UACC-62 melanoma) was > 100 µM.
